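Cells were grown in 96-well plates and exposed to each compound for 48 hours at five concentrations; endpoints were interpolated linearly between bracketing concentrations, or set to the highest concentration if not reached. GI50 = concentration required for 50% inhibition of growth. TGI marks complete inhibition of growth.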
Experiments:
Test in all cases: NCI anticancer screen, dose series, 48 h
MCF7 breast = test system: MCF7 breast
OVCAR-4 ovarian = test system: OVCAR-4 ovarian
IGROV1 ovarian = test system: IGROV1 ovarian
OVCAR-8 ovarian = test system: OVCAR-8 ovarian
NCI-H23 lung = test system: NCI-H23 lung
SF-295 CNS = test system: SF-295 CNS
TK-10 renal = test system: TK-10 renal
DU-145 prostate = test system: DU-145 prostate
HT29 colon = test system: HT29 colon
HCT-15 colon = test system: HCT-15 colon
SK-MEL-5 melanoma = test system: SK-MEL-5 melanoma
HOP-62 NSCLC = test system: HOP-62 NSCLC
BT-549 breast = test system: BT-549 breast
NCI-H226 lung = test system: NCI-H226 lung
NCI-H460 lung = test system: NCI-H460 lung
U251 CNS = test system: U251 CNS
HOP-92 NSCLC = test system: HOP-92 NSCLC
MALME-3M melanoma = test system: MALME-3M melanoma
ACHN renal = test system: ACHN renal
UACC-62 melanoma = test system: UACC-62 melanoma
MDA-MB-231 breast = test system: MDA-MB-231 breast
SK-MEL-2 melanoma = test system: SK-MEL-2 melanoma
NCI-H522 lung = test system: NCI-H522 lung
PC-3 prostate = test system: PC-3 prostate
A498 renal = test system: A498 renal
SF-539 CNS = test system: SF-539 CNS
SK-MEL-28 melanoma = test system: SK-MEL-28 melanoma
OVCAR-3 ovarian = test system: OVCAR-3 ovarian
NCI/ADR-RES ovarian = test system: NCI/ADR-RES ovarian
MDA-MB-435 = test system: MDA-MB-435
RXF 393 renal = test system: RXF 393 renal
EKVX NSCLC = test system: EKVX NSCLC
SN12C renal = test system: SN12C renal
HCC-2998 colon = test system: HCC-2998 colon
CAKI-1 renal = test system: CAKI-1 renal
T-47D breast = test system: T-47D breast
SF-268 CNS = test system: SF-268 CNS
OVCAR-5 ovarian = test system: OVCAR-5 ovarian
SNB-19 CNS = test system: SNB-19 CNS
SK-OV-3 ovarian = test system: SK-OV-3 ovarian
SW-620 colon = test system: SW-620 colon
SR leukemia = test system: SR leukemia
HS 578T breast = test system: HS 578T breast
LOX IMVI melanoma = test system: LOX IMVI melanoma
UACC-257 melanoma = test system: UACC-257 melanoma
CCRF-CEM leukemia = test system: CCRF-CEM leukemia
M14 melanoma = test system: M14 melanoma
HCT-116 colon = test system: HCT-116 colon
A549 NSCLC = test system: A549 NSCLC
KM12 colon = test system: KM12 colon
RPMI-8226 leukemia = test system: RPMI-8226 leukemia
SNB-75 CNS = test system: SNB-75 CNS
K-562 leukemia = test system: K-562 leukemia
MOLT-4 leukemia = test system: MOLT-4 leukemia
COLO 205 colon = test system: COLO 205 colon
786-0 renal = test system: 786-0 renal
UO-31 renal = test system: UO-31 renal

## Nc1n[nH]c2cccc(C#Cc3cccc(C(=O)Nc4cc(CN5CCOCC5)cc(C(F)(F)F)c4)c3)c12
MCF7 breast
  GI50: 3.28 µM
  TGI: 15.6 µM
OVCAR-4 ovarian
  GI50: 5.8 µM
  TGI: 23.1 µM
IGROV1 ovarian
  GI50: 3.23 µM
  TGI: 11.7 µM
OVCAR-8 ovarian
  GI50: 4.63 µM
  TGI: 20.6 µM
NCI-H23 lung
  GI50: 3.56 µM
  TGI: 18.8 µM
SF-295 CNS
  GI50: 3.46 µM
  TGI: 14.2 µM
TK-10 renal
  GI50: 11.4 µM
  TGI: 27.5 µM
DU-145 prostate
  GI50: 9.82 µM
  TGI: 23.8 µM
HT29 colon
  GI50: 3.13 µM
  TGI: 16.2 µM
HCT-15 colon
  GI50: 3.57 µM
  TGI: 15.2 µM
SK-MEL-5 melanoma
  GI50: 4.34 µM
  TGI: 16 µM
HOP-62 NSCLC
  GI50: 4.5 µM
  TGI: 18.1 µM
BT-549 breast
  GI50: 4.33 µM
  TGI: 18.8 µM
NCI-H226 lung
  GI50: 1.72 µM
  TGI: 9.68 µM
NCI-H460 lung
  GI50: 4.11 µM
  TGI: 16.9 µM
U251 CNS
  GI50: 5.57 µM
  TGI: 19.2 µM
HOP-92 NSCLC
  GI50: 2.78 µM
  TGI: 9.61 µM
MALME-3M melanoma
  GI50: 1.63 µM
  TGI: 9.88 µM
ACHN renal
  GI50: 3.06 µM
  TGI: 11.8 µM
UACC-62 melanoma
  GI50: 1.99 µM
  TGI: 8.34 µM
MDA-MB-231 breast
  GI50: 1.65 µM
  TGI: 6.8 µM
SK-MEL-2 melanoma
  GI50: 2.62 µM
  TGI: 10.6 µM
NCI-H522 lung
  GI50: 3.62 µM
  TGI: 16.2 µM
PC-3 prostate
  GI50: 4.39 µM
  TGI: 19 µM
A498 renal
  GI50: 1.75 µM
  TGI: 9.53 µM
SF-539 CNS
  GI50: 2.4 µM
  TGI: 12 µM
SK-MEL-28 melanoma
  GI50: 2.99 µM
  TGI: 12.1 µM
OVCAR-3 ovarian
  GI50: 7.41 µM
  TGI: 31.3 µM
NCI/ADR-RES ovarian
  GI50: 4.59 µM
  TGI: 23.3 µM
MDA-MB-435
  GI50: 3.46 µM
  TGI: 15.2 µM
RXF 393 renal
  GI50: 2.21 µM
  TGI: 7.92 µM
EKVX NSCLC
  GI50: 5.58 µM
  TGI: 19.9 µM
SN12C renal
  GI50: 3.71 µM
  TGI: 16.4 µM
HCC-2998 colon
  GI50: 3.3 µM
  TGI: 12.2 µM
CAKI-1 renal
  GI50: 5.11 µM
  TGI: 19.4 µM
T-47D breast
  GI50: 2.23 µM
  TGI: 10.2 µM
SF-268 CNS
  GI50: 5.66 µM
  TGI: 22.1 µM
OVCAR-5 ovarian
  GI50: 3.37 µM
  TGI: 25.7 µM
SNB-19 CNS
  GI50: 5.23 µM
  TGI: 20.3 µM
SK-OV-3 ovarian
  GI50: 15.5 µM
  TGI: 34.8 µM
SW-620 colon
  GI50: 4.59 µM
  TGI: 24.3 µM
SR leukemia
  GI50: 2.69 µM
  TGI: 22.9 µM
HS 578T breast
  GI50: 2.75 µM
  TGI: 34.1 µM
LOX IMVI melanoma
  GI50: 1.87 µM
  TGI: 5.63 µM
UACC-257 melanoma
  GI50: 4.63 µM
  TGI: 18.1 µM
CCRF-CEM leukemia
  GI50: 3.68 µM
  TGI: 20.3 µM
M14 melanoma
  GI50: 2.13 µM
  TGI: 8.32 µM
HCT-116 colon
  GI50: 2 µM
  TGI: 11.1 µM
A549 NSCLC
  GI50: 5.32 µM
  TGI: 19.7 µM
KM12 colon
  GI50: 3.43 µM
  TGI: 14.7 µM
RPMI-8226 leukemia
  GI50: 3.19 µM
  TGI: 27.3 µM
SNB-75 CNS
  GI50: 5.51 µM
  TGI: 19.3 µM
K-562 leukemia
  GI50: 0.0651 µM
  TGI: 2.41 µM
MOLT-4 leukemia
  GI50: 2.76 µM
  TGI: 13.3 µM
COLO 205 colon
  GI50: 2.7 µM
  TGI: 11.1 µM
786-0 renal
  GI50: 3.97 µM
  TGI: 15 µM
UO-31 renal
  GI50: 2.03 µM
  TGI: 11.1 µM

From PubChem BioAssay (NCI)
